Marks after values point to notes of the source that are not given here.
Columns and labels:
[1] = system: breast cancer MCF-7 tumor; experiment: Subcutaneous xenograft in nude mice, breast cancer MCF-7; assay type: in vivo; details: SC, mean ± SEM, n = 4-5 animals/group
Description: Immunodeficient, female NCr nude mice aged 5-6 weeks and weighing between […] were maintained under specific pathogen-free conditions and housed under controlled conditions of temperature (20-24° C.) and humidity (60-70%) and 12 h light/dark cycle with ad libitum access to water and food. Mice were allowed to acclimatize for 5 days prior to the start of study.
Xenografts containing 1×10^6 to 2×10^6 tumor cells (e.g., pancreatic SUIT2, colon HT-29, glioblastoma U87, or breast cancer MCF-7 cells) were implanted subcutaneously in a mouse flank. There were 2 grafts mouse and there were 4 mice in each group (control, treatments using vehicle). DMSO or ethyl acetate used during the preparation of nanocapsules was totally removed by dialysis and the vehicle used to disperse the DIM or EA and their nanocapsule forms was phosphate buffered saline (PBS).
Tumors were excised at the end of the study from all treatment arms, which included control; DIM; EA; nanocapsule containing DIM; nanocapsule containing EA; nanocapsule containing DIM acid EA; nanocapsule containing cisplatin; nanocapsule containing doxorubicin; nanocapsule containing cisplatin, DIM, and EA; and nanocapsule containing doxorubicin, DIM, and EA. Tumor growth was measured.

[2] = Plasma cardiac troponin in MCF-7 tumor bearing mice; assay type: in vivo
[3] = system: cisplatin-induced NF-κB; experiment: NF-κB luciferase assay in HeLa cells stimulated with cisplatin; assay type: cell-based; details: Homo sapiens, 3 μM (3 μM total for combinations), n = 3, read-out: Mean % inhibition of cisplatin-induced NFkB ± SD
Description: The induction of NF-κB by cisplatin and other chemotherapies is known to be associated with neuropathy and nephrotoxicity. In this example, the effect of unencapsulated DIM and EA, and the nanocapsules cisplatin-induced NF-κB was studied using HeLa cells which expressed NF-κB.
HeLa cells were seeded at 1×10^5 cells in 2 ml/well in 6-well plates at 37° C. for 24 hours. The doses of the test compounds were based on preliminary studies. Test compounds (nanocapsules containing DIM, nanocapsules containing E&, nanocapsules containing DIM and EA, unencapsulated DIM, and unencapsulated EA) were added at concentrations ranging from 1-3 μM to the plate with fresh medium including 0.5% FBS and incubated at 37° C. in 5% CO2 for an additional 3 hours. For induction of transcription and to test the biological response of the promoters, the cell line stimulated with cisplatin (Sigma) and the cells were incubated at 37° C. in 5% CO2 for 24 hours. The luciferase activity determined by using the luciferase assay system (Promega, Madison, Wis., US). […] Luminescence was immediately measured using Glomax 20/20 Illuminometer (Promega). Luciferase expression of each test compound was quantified as the relative light units (RLU), normalized to readings of control wells, and expressed as relative NF-κB reporter activity. The mean % inhibitory effects of the compounds were calculated.

[4] = system: SUIT2 pancreatic tumor; experiment: CAM pancreatic cancer cell implant model (tumor growth, tumor angiogenesis, IVIS bioluminescence); assay type: in vivo, chick embryo; details: for suppression of vascular pattern / tumor angiogenesis of pancreatic tumor: 1 μg/CAM, 3 days of incubation, nanocapsules versus unencapsulated; for viable pancreatic cancer cells, bioluminescence (IVIS): SUIT2-luc tumors, ex vivo imaging
Description: To determine the relative potency of different nanocapsules and unencapsulated bioactive compounds, they were tested in the CAM pancreatic cancer cell implant model of tumor growth and tumor angiogenesis by modifying published protocols (Marcinkiewicz C. Weinreb P H, Calvete J J, Kisiel D G, Mousa S A, Tuszynski G P, Lobb R R. A Potent Selective Inhibitor of alpha1beta1 Integrin in Vitro and Angiogenesis in Vivo. Cancer Res. 2003; 63(9): 2020-2023; and Deryugina E I and Quigley J P: Chick Embryo Chorioallantoic Membrane Models to Quantify Angiogenesis induced by inflammatory and tumor cells or purified effector molecules. Methods in Enzymol. 2008; 444: 21-41, each incorporated herein by reference in their entirety).
A 7-day old chick embryo were purchased from Spafas, Inc. (Preston, Conn.) and incubated at 37° C. with 55% relative humidity. A hypodermic needle was used to make a small hole in the shell at the air sac and a second hole will be made on the broadside of the egg, directly over an avascular portion of the embryonic membrane that was identified by candling. A false air sac was created beneath the second hole by the application of negative pressure at the first hole, causing the CAM to separate from the shell. […] Treatment effects (Tumor growth, and tumor angiogenesis were determined 7 days after tumor cell implantation. For these studies, Matrigel® (BD Bioscience, San Jose Calif.) were thawed overnight at 4° C. and placed on ice. Cells in exponential growth phase were harvested using 0.25% trypsin-EDTA washed and suspended in medium. Only suspensions of single cells with a viability exceeding 95% were used. Approximately 1×10^6 cells in 30 μL of medium mixed with same volume (30 μL) of Matrigel was implanted on the chorioallantoic membrane.
After incubation at 37° C. with 55% relative humidity for 3 days, the CAM tissue directly beneath each filter disk was resected from control and treated CAM samples. […] Digital images of CAM sections exposed to filters were collected, using a 3-CCD color video c vera system (Toshiba America, New York, N.Y.), and analyzed with Image-Pro software (Media Cybernetics, Silver Spring, Md.). The numbers of vessel branch points contained in a circular region equal to the area of each filter disk were counted. One image was counted in each CAM preparation, and findings from 6-8 CAM preparations group were analyzed for each treatment condition.
Results presented as mean tumor weight (mg) per treatment group and tumor hemoglobin (mg/dl)±SD, n=8 eggs per group. The effect of these treatments was determined after 7 days of implantation. […]

[5] = system: SUIT2 pancreatic cancer cells; experiment: MTT cell viability/proliferation assay, SUIT2; assay type: cell-based, human; details: SUIT2, 24 hours, 1 μg/ml
Description: SUIT2-luc cells were grown in DMEM supplemented with 5% fetal bovine serum, 1% penicillin, and 1% streptomycin. Cells were cultured at 37° C. to sub-confluence and treated with 0.25% w/v typsin/EDTA to affect cell release from culture flask. After washing cells with culture medium, cells were suspended in DMEM (free of phenol red and fetal bovine serum) and counted.
SUIT2 cells were subjected to treatment with unencapsulated DIM, unencapsulated EA, combinations thereof, and the nanocapsules containing DIM and/or EA at concentrations of the bioactive compounds ranging from 0.1 to 10 μg. Briefly, cells were seeded at a density of 10^4 cells/well in 96-well plates, and then incubated with compounds and nanocapsules for 24 hours. Cell viability/proliferation was determined by MTT assay, as per the manufacturer's protocol. MTT solution was added to each well, and cells were further incubated for 4 hours at 37° C. The formed dye was solubilized by the addition of 50 μL of DMSO and incubated for 10 min at 37° C. The optical density of each well was determined using an ELISA plate reader at an activation wavelength of 570 nm and reference wavelength of 650 nm. The percentage of viable cells was determined by comparison to untreated control cells.

| Structure (SMILES) | Mean Breast (MCF-7) Tumor Growth [1] | plasma cardiac troponin ([2]; MCF-7 tumor bearing mice) | Troponin (% from control) ([2]; mice, SC) | inhibition at 3 µM [3] | suppression of vascular pattern / tumor angiogenesis of pancreatic tumor [4] | viable pancreatic cancer cells, bioluminescence (IVIS) [4] | effect on cell viability/proliferation [5] |
| --- | --- | --- | --- | --- | --- | --- | --- |
| COc1cccc2c1C(=O)c1c(O)c3c(c(O)c1C2=O)C[C@@](O)(C(=O)CO)C[C@@H]3O[C@H]1C[C@H](N)[C@H](O)[C@H](C)O1 [DOX, doxorubicin] | 0.70 ± 0.15 g | large increase | +50-70%** | – | – | – | – |
| O=c1oc2c(O)c(O)cc3c(=O)oc4c(O)c(O)cc1c4c23 [Ellagic acid, ellagic acid] | – | – | – | 26 ± 4% | mild suppression | statistically significant reduction | did not show any significant effect |
| c1ccc2c(Cc3c[nH]c4ccccc34)c[nH]c2c1 [DIM, 3,3′-diindolylmethane] | – | – | – | 20 ± 5% | mild suppression | statistically significant reduction | did not show any significant effect |
